According to patent US6436948B1, “Method for the treatment of psoriasis and genital warts” (priority 1995, dated 2002):

Key:
Type in all cases: cell-based
[1] = test system: KB nasopharyngeal carcinoma cell line; experiment: In vitro cytotoxicity, methylene blue assay / cell count: KB; conditions: three generations, mean ± standard deviation of five experiments, read-out: ID50 (the source's name)
[2] = test system: DU-145 prostate carcinoma line; experiment: In vitro cytotoxicity, methylene blue assay / cell count: DU-145; conditions: three generations, mean ± standard deviation of five experiments, read-out: ID50 (the source's name)
[3] = test system: PC-3 prostate carcinoma line; experiment: In vitro cytotoxicity, methylene blue assay / cell count: PC-3; conditions: three generations, mean ± standard deviation of five experiments, read-out: ID50 (the source's name)
HepG2 cells = experiment: In vitro cytotoxicity, methylene blue assay / cell count: HepG2; conditions: three generations, mean ± standard deviation of five experiments, read-out: ID50 (the source's name)
2.2.15 line = experiment: In vitro cytotoxicity, methylene blue assay / cell count: 2.2.15; conditions: three generations, mean ± standard deviation of five experiments, read-out: ID50 (the source's name)
Method: Cells in logarithmic growth were plated at a density of 5000 cells/mL/well in 24-well plates. Drugs were added to the cells at different dosages and cultures were maintained for a period of three generations. At the end of this time, methylene blue assays were performed and/or cell numbers were directly counted. […] IC50 values were determined by interpolation of the plotted data. Each value shown is the mean± standard deviation of five experiments with each data point done in duplicate.
HepG2 cells originate from hepatocellular carcinoma and the 2.2.15 line is derived from HepG2 cells which were transfected with a copy of the hepatitis B virus genome.

CEM cells = experiment: In vitro cytotoxicity, methylene blue assay / cell count: CEM; conditions: three generations, mean ± standard deviation of five experiments, read-out: ID50 (the source's name)
tumor cell lines tested = experiment: In vitro cytotoxicity, statement on all tumor cell lines tested; conditions: all of the tumor cell lines tested

O=c1ccn(C2COC(CO)O2)c(=O)[nH]1 (single isomer, unassigned; (-)) [(−)-OddU]
IC50 [1]: > 30 µM | IC50 [2]: > 30 µM | IC50 [3]: > 30 µM | IC50 (HepG2 cells): > 30 µM | IC50 (2.2.15 line): > 30 µM | IC50 (CEM cells): > 30 µM | Cytotoxicity in words (tumor cell lines tested): not toxic
